Tests used:
[1] = micellar particle size and polydispersity index (ZetaSizer, dynamic light scattering) of drug formulations at different dilutions; format: physicochemical
Protocol: The particle size of the micelles in the composition is typically in the range of about 5 to about 150 nm. The particle size may be determined e.g. using Dynamic Light Scattering (DLS) in 0.9% NaCl at 1 mg/mL drug concentration, preferably using a red laser with a wavelength of 633 nm.
Micellar size was measured using a ZetaSizer from Malvern Panalytical. […]
20 mg of example 1 was dispensed into a 25 mL round bottom flask and dissolved in methanol (3 mL). 800 μL of a stock solution of docetaxel in methanol (5 mg/mL) was added. The solution was evaporated to dryness in a rotary evaporator. Final drying was performed in a desiccator to remove residual solvent. Hydration of the dried film was performed by adding water for injection (1.0 mL) to a concentration of 4 mg/mL of docetaxel. The 4 mg/mL concentration was further diluted with 0.9% sodium chloride according to the table below. […]
A serial dilution was performed for the system docetaxel:compound 1. A stock solution of docetaxel in methanol was mixed with a stock solution of the micelle forming agent (compound 1) in a round bottom flask at a weight ratio of 1:5. The mixture was evaporated to dryness in a rotary evaporator. Final drying was performed in a desiccator to remove residual solvent. Hydration of the dried film was performed by adding water for injection (1.0 mL) to a concentration of 1 mg/mL of docetaxel. The resulting solution was filtered through a 0.22 μm sterile filter and further diluted with 0.9% sodium chloride solution.
(§1) 4.5 mg of compound 1 was dispensed into a 25 mL round bottom flask and dissolved in methanol (2 mL). 1500 μL of a stock solution of cabazitaxel in methanol (1.00 mg/mL) was added. The solution was evaporated to dryness in a rotary evaporator. Final drying was performed in a desiccator to remove residual solvent. […]

[2] = appearance of the hydrated drug formulation; format: physicochemical
Protocol: 3.8 mg of compound 1 was dispensed into a 25 mL round bottom flask and dissolved in methanol (2 mL). 240 μL of a stock solution of docetaxel in methanol (5 mg/mL) was added.
The solution was evaporated to dryness in a rotary evaporator. Final drying was performed in a desiccator to remove residual solvent. Hydration of the dried film was performed by adding water for injection (1.2 mL). […] Drug loading capacity is defined as the ratio of amount API:(API+excipient).
11 mg of example 1 was dispensed into a 25 mL round bottom flask and dissolved in methanol (2 mL). 740 μL of a stock solution of docetaxel in methanol (4.96 mg/mL) was added. The solution was evaporated to dryness in a rotary evaporator. Final drying was performed in a desiccator to remove residual solvent.
4.5 mg of compound 1 was dispensed into a 25 mL round bottom flask and dissolved in methanol (2 mL). 1500 μL of a stock solution of cabazitaxel in methanol (1.00 mg/mL) was added. The solution was evaporated to dryness in a rotary evaporator. Final drying was performed in a desiccator to remove residual solvent.
as §1, with “cyclosporin” for “cabazitaxel”
4.5 mg of compound 4 was dispensed into a round bottom flask and dissolved in methanol (3 mL). […] of a stock solution of docetaxel in methanol (4.96 mg/mL) was added. The solution was evaporated to dryness in a rotary evaporator. Final drying was performed in a desiccator (40 min) to remove residual solvent. Rehydration of the dried film was performed by adding 0.9% sodium chloride solution (1.5 mL).

[3] = micelles with cabazitaxel, ratio 3:1, 0.9% NaCl, cabazitaxel conc. 0.25 mg/mL
[4] = micelles with cabazitaxel, ratio 3:1, 0.9% NaCl, cabazitaxel conc. 0.5 mg/mL
[5] = micelles with cabazitaxel, ratio 3:1, 0.9% NaCl, cabazitaxel conc. 1 mg/mL
[6] = micelles with cyclosporin, ratio 3:1, 0.9% NaCl, cyclosporin conc. 0.25 mg/mL
[7] = micelles with cyclosporin, ratio 3:1, 0.9% NaCl, cyclosporin conc. 0.5 mg/mL
[8] = micelles with cyclosporin, ratio 3:1, 0.9% NaCl, cyclosporin conc. 1 mg/mL
[9] = micelles with docetaxel, ratio 3:1, 0.9% NaCl, docetaxel conc. 0.25 mg/mL
[10] = micelles with docetaxel, ratio 3:1, 0.9% NaCl, docetaxel conc. 0.5 mg/mL
[11] = micelles with docetaxel, ratio 3:1, 0.9% NaCl, docetaxel conc. 1 mg/mL
[12] = micelles with docetaxel, ratio 5:1, docetaxel conc. 0.25 mg/mL
[13] = micelles with docetaxel, ratio 5:1, docetaxel conc. 0.5 mg/mL
[14] = micelles with docetaxel, ratio 5:1, docetaxel conc. 1 mg/mL
[15] = micelles with docetaxel, 1.2 mg docetaxel + 3.8 mg compound, water 1.2 mL + 0.9% NaCl 1.0 mL
[16] = serial dilution, docetaxel:compound 1:5, compound conc. 0.08 mM
[17] = serial dilution, docetaxel:compound 1:5, compound conc. 0.12 mM
[18] = serial dilution, docetaxel:compound 1:5, compound conc. 0.15 mM
[19] = serial dilution, docetaxel:compound 1:5, compound conc. 0.3 mM
[20] = serial dilution, docetaxel:compound 1:5, compound conc. 0.6 mM
[21] = serial dilution, docetaxel:compound 1:5, compound conc. 1.2 mM
[22] = serial dilution, docetaxel:compound 1:5, compound conc. 2.4 mM
[23] = serial dilution, docetaxel:compound 1:5, compound conc. 4.8 mM
[24] = micelles with docetaxel, ratio 2:1, 0.9% NaCl, docetaxel conc. 0.25 mg/mL
[25] = micelles with docetaxel, ratio 2:1, 0.9% NaCl, docetaxel conc. 0.5 mg/mL
[26] = micelles with docetaxel, ratio 2:1, 0.9% NaCl, docetaxel conc. 1 mg/mL

In the case of `COc1cc(C)c(/C=C/C(C)=C/C=C/C(C)=C/C(=O)N(CCS(=O)(=O)[O-])C2CCCCC2)c(C)c1C.[Na+]` [Compound 1], the “trend of micellar size and RSD during dilution” value ([1]; docetaxel:compound 1:5, serial dilution with 0.9% NaCl) is reported as “The micellar size and RSD showed no significant trend during dilution”, the Particle size [1, 3] is reported as 121.2 nm and the Polydispersity index [1, 3] is reported as 0.079. It also gave a Particle size [1, 4] of 111.2 nm, a Polydispersity index [1, 4] of 0.102 and a Particle size [1, 5] of 87.6 nm. For the same compound, the Polydispersity index [1, 5] was 0.145, the Particle size [1, 6] was 60.1 nm and the Polydispersity index [1, 6] was 0.258. It also gave a Particle size [1, 7] of 53.3 nm, a Polydispersity index [1, 7] of 0.293 and a Particle size [1, 8] of 41.7 nm. For the same compound, the Polydispersity index [1, 8] was 0.212, the Particle size [1, 9] was 56.0 nm and the Polydispersity index [1, 9] was 0.29. The Particle size [1, 10] was 52.6 nm, the Polydispersity index [1, 10] was 0.25 and the Particle size [1, 11] was 47.7 nm. It also gave a Polydispersity index [1, 11] of 0.24, a Particle size [1, 12] of 49.6 nm and a Polydispersity index [1, 12] of 0.25. It also gave a Particle size [1, 13] of 41.5 nm, a Polydispersity index [1, 13] of 0.24 and a Particle size [1, 14] of 29.2 nm. It also gave a Polydispersity index [1, 14] of 0.24, a Particle size [1, 15] of 7.0 nm and a Polydispersity index [1, 15] of 0.20. For the same compound, the Particle size [1, 16] was 33.73 nm, the “Polydispersity index, pdi” value [1, 16] was 0.45 and the Particle size [1, 17] was 32.72 nm. The “Polydispersity index, pdi” value [1, 17] was 0.39, the Particle size [1, 18] was 34.06 nm and the “Polydispersity index, pdi” value [1, 18] was 0.34. For the same compound, the Particle size [1, 19] was 37.85 nm, the “Polydispersity index, pdi” value [1, 19] was 0.25 and the Particle size [1, 20] was 36.53 nm. For the same compound, the “Polydispersity index, pdi” value [1, 20] was 0.18, the Particle size [1, 21] was 36.5 nm and the “Polydispersity index, pdi” value [1, 21] was 0.16. The Particle size [1, 22] was 36.2 nm, the “Polydispersity index, pdi” value [1, 22] was 0.14 and the Particle size [1, 23] was 35.4 nm. The “Polydispersity index, pdi” value [1, 23] was 0.11, the appearance of formulation ([2]; formulation with cabazitaxel, 1 mg/mL in 0.9% NaCl) was “yellow transparent solution” and the appearance of formulation ([2]; formulation with cyclosporin, 1 mg/mL in 0.9% NaCl) was “yellow transparent solution”. The appearance of formulation ([2]; formulation with docetaxel) was “yellow transparent solution”.

In the case of `COc1cc(C)c(/C=C/C(C)=C/C=C/C(C)=C/C(=O)N(C)CCS(=O)(=O)[O-])c(C)c1C.[Na+]` [Compound 3], the Particle size [1, 24] is reported as 14.0 nm, the Polydispersity index [1, 24] is reported as 0.53 and the Particle size [1, 25] is reported as 19.9 nm. The Polydispersity index [1, 25] was 0.76, the Particle size [1, 26] was 13.5 nm and the Polydispersity index [1, 26] was 0.52. It also gave a Particle size [1, 9] of 11.8 nm, a Polydispersity index [1, 9] of 0.27 and a Particle size [1, 10] of 11.3 nm. The Polydispersity index [1, 10] was 0.25, the Particle size [1, 11] was 9.30 nm and the Polydispersity index [1, 11] was 0.33. For the same compound, the appearance of formulation ([2]; formulation with docetaxel) was “transparent yellow solution”.
